{"source": "patent US8062653B2", "about": "“Controlled release of nitric oxide and drugs from functionalized macromers and oligomers” (Bezwada Biomedical, LLC, priority 2009, dated 2011)", "key": {"[1]": {"conditions": "prior-art NO-releasing small molecules; cited from earlier work"}}, "data": [{"compound": "O=C(CCCCCO[N+](=O)[O-])Oc1ccc(-c2coc3cc(OC(=O)CCCCCO[N+](=O)[O-])ccc3c2=O)cc1", "values": [{"measurement": "melting point", "value": "100 to 102", "unit": "°C"}]}, {"compound": "CC(C)(SN=O)C(N)C(=O)O", "note": "(racemic) [S-nitroso-D,L-penicillamine]", "values": [{"measurement": "lifetime in physiological solution", "setting": "[1]", "value": "no more than about an hour"}]}, {"compound": "N[C@@H](CSN=O)C(=O)O", "note": "[S-nitrosocysteine]", "values": [{"measurement": "lifetime in physiological solution", "setting": "[1]", "value": "no more than about an hour"}]}]}
